These results are taken from patent publication US5514821A, “Ring-labeled retinoids and intermediates, and methods for their synthesis and use” (Ligand Pharmaceuticals Incorporated, priority 1994, dated 1996).

Molecules are shown by their SMILES.

For experiment [1], the system named is RARs and RXRs. The experiment can be described thus: binding to baculovirus-derived RARs and RXRs (overall finding in words). To be noted: RARα,β,γ and RXRα,β,γ; for binding to RARs and RXRs (in words): saturation binding. The text has this:
Exp. Stat. Bull., No. 155 (1987).
[…]. […] […].

In experiment [2] the test system is RARs and RXRs. To be noted: Heyman et al., Cell, 68:397 (1992); cited from earlier work.

Consider `CC1=C(/C=C/C(C)=C/C=C/C(C)=C/C(=O)O)C(C)(C)CCC1` [ATRA, all-trans retinoic acid], for which, in the experiment on RARs and RXRs [1], the “activity on the retinoid receptors (in words, per Table 1)” value is recorded as “only active on RARα,β,γ”; the “binding to RARs and RXRs (in words)” value is reported as “only binds to the RARs”.

Regarding `CC1=C(/C=C/C(C)=C\C=C\C(C)=C\C(=O)O)C(C)(C)CCC1` [9-cis RA, 9-cis retinoic acid], the “binding to and modulating gene expression via the RARs and RXRs” value in the experiment with RARs and RXRs [2] is “capable of binding to and modulating gene expression via the RARs and RXRs”. Besides, the “activity on the retinoid receptors (in words, per Table 1)” value in the experiment with RARs and RXRs [1] is “active on all six known retinoid receptors”. Also, the “binding to RARs and RXRs (in words)” value was “binds to the RARs and RXRs with high affinity in a saturable and specific manner” in the experiment on RARs and RXRs [1] (listed as 9-cis retinoic acid); “effectively binds to all six receptors” with RARs and RXRs [1] (listed as 9-cis-retinoic acid).
